Assay results taken from the NIST ThermoML archive (doi:10.1021/je500936y).
± gives the expanded uncertainty stated by the source.

Legend:
[1] = refractive index (Na D-line) (dimensionless); conditions: 100 kPa, Liquid, Standard Abbe refractometry
[2] = 100 kPa, Liquid; for speed of sound: Frequency=3 MHz, Sing-around technique in a fixed-path interferometer; for mass density: Vibrating tube method
[3] = xn = mol fraction of the nth substance listed; conditions: 100 kPa, Liquid, x1 = 1; for speed of sound: Frequency=3 MHz, Sing-around technique in a fixed-path interferometer; for mass density: Vibrating tube method
[4] = refractive index (Na D-line) (dimensionless); xn = mol fraction of the nth substance listed; conditions: 100 kPa, Liquid, Standard Abbe refractometry, x1 = 1

C=CN1CCCC1=O [N-vinylpyrrolidone]
Conditions | mass density, [2] [kg/m3] | refractive index, [1] | speed of sound, [2] [m/s]
298.15 K | 1039.36 ± 2 | 1.51119 ± 0.001 | 1521.5 ± 3.1
303.15 K | 1034.95 ± 2 | 1.50886 ± 0.001 | 1502.5 ± 3.1
308.15 K | 1030.55 ± 2 | 1.5065 ± 0.001 | 1483.7 ± 3.1
313.15 K | 1026.14 ± 2 | 1.50415 ± 0.001 | 1465 ± 3.1
318.15 K | 1021.73 ± 2 | 1.50181 ± 0.001 | 1446.5 ± 3.1
323.15 K | 1017.33 ± 1.9 | 1.49948 ± 0.001 | 1428.1 ± 3.1

CCCCn1cc[n+](C)c1.F[B-](F)(F)F [1-butyl-3-methylimidazolium tetrafluoroborate] + C=CN1CCCC1=O
Conditions | mass density, [3] [kg/m3] | refractive index, [4] | speed of sound, [3] [m/s]
298.15 K | 1198.78 ± 0.39 | 1.42058 ± 0.00087 | 1565.1 ± 1.3
303.15 K | 1195.18 ± 0.39 | 1.41913 ± 0.00087 | 1553.2 ± 1.2
308.15 K | 1191.6 ± 0.39 | 1.41764 ± 0.00087 | 1541.3 ± 1.2
313.15 K | 1188.04 ± 0.38 | 1.41621 ± 0.00087 | 1529.7 ± 1.2
318.15 K | 1184.5 ± 0.38 | 1.41472 ± 0.00087 | 1518.2 ± 1.2
323.15 K | 1180.98 ± 0.38 | 1.4133 ± 0.00087 | 1506.8 ± 1.2

CCCCn1cc[n+](C)c1.F[B-](F)(F)F [1-butyl-3-methylimidazolium tetrafluoroborate]
Conditions | mass density, [2] [kg/m3] | refractive index, [1] | speed of sound, [2] [m/s]
298.15 K | 1198.78 ± 0.39 | 1.42058 ± 0.00087 | 1565.1 ± 1.3
303.15 K | 1195.18 ± 0.39 | 1.41913 ± 0.00087 | 1553.2 ± 1.2
308.15 K | 1191.6 ± 0.39 | 1.41764 ± 0.00087 | 1541.3 ± 1.2
313.15 K | 1188.04 ± 0.38 | 1.41621 ± 0.00087 | 1529.7 ± 1.2
318.15 K | 1184.5 ± 0.38 | 1.41472 ± 0.00087 | 1518.2 ± 1.2
323.15 K | 1180.98 ± 0.38 | 1.4133 ± 0.00087 | 1506.8 ± 1.2
